Columns and labels:
Assay type in all cases: biochemical
[1] = target: T1, catalytic domain of MMP-3 enzyme (Homo sapiens, UniProt P08254); test: Assay for determining MMP-3 inhibition (NFF-3 fluorescent substrate); conditions: Table 3, activity group
T1 construct: stock solution of the catalytic domain of MMP-3 enzyme (Biomol, Cat. No. SE-109); purchased Biomol SE-109
Method: (§1) The typical assay for MMP-3 activity is carried out in assay buffer comprised of 50 mM MES, pH 6.0, 10 mM CaCl2 and 0.05% Brij-35. Different concentrations of tested compounds are prepared in assay buffer in 50 μL aliquots. […] The mixture of enzyme and compound in assay buffer is thoroughly mixed and incubated for 10 min at room temperature. […] The time-dependent increase in fluorescence is measured at the 330 nm excitation and 390 nm emission by an automatic plate multireader. The IC50 values are calculated from the initial reaction rates.

[2] = target: T2, activated MMP-8 enzyme (Homo sapiens, UniProt P22894); test: Assay for determining MMP-8 inhibition (fluorescent substrate); conditions: Table 2, activity group
T2 construct: purchased Calbiochem 444229
Method: as §1, with “MMP-8” for “MMP-3”, “Tris,” for “MES,”, “7.5, 150 mM NaCl, 5” for “6.0, 10”, “37° C.” for “room temperature.”, “320” for “330”, “multireader at 37° C.” for “multireader.”

[3] = target: T3, catalytic domain of MMP-13 enzyme (Homo sapiens, UniProt P45452); test: Assay for determining MMP-13 inhibition (fluorescent substrate); conditions: Table 1, activity group
T3 construct: stock solution of catalytic domain of MMP-13 enzyme (produced by Alantos or commercially available from Invitek (Berlin), Cat.# 30100812); purchased Invitek (Berlin) 30100812
Method: as §1, with “MMP-13” for “MMP-3”, “Tris,” for “MES,”, “7.5, 150 mM NaCl, 5” for “6.0, 10”, “320” for “330”, “by” for “by an”

T2 sequence (P22894 101-467): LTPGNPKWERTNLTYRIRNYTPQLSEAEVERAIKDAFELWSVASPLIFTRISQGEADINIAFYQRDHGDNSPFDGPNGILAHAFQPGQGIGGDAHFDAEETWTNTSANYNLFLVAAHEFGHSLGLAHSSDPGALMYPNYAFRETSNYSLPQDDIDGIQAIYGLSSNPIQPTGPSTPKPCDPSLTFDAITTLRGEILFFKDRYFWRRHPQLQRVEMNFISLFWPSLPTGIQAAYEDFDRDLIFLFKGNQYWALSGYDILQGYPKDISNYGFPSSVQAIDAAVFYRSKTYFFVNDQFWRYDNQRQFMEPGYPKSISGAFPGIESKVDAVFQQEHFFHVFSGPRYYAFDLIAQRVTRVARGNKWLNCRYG
T1 sequence (P08254 100-272 limits assumed): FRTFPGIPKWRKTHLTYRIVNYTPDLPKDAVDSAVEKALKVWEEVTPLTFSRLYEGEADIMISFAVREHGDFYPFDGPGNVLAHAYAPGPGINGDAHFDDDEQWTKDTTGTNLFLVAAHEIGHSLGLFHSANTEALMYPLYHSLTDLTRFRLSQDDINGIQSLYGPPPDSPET

IC50 [1]: 0.25 to 20 µM | IC50 [2]: 0.25 to 20 µM | IC50 [3]: 0.1 to 20 µM
SMILES: Cc1snc2sc3c(=O)[nH]c(C(=O)NCc4ccc5c(c4)NC(=O)CO5)nc3c12 [Example 39/7]

Reference: patent US7749996B2, “Heterotricyclic metalloprotease inhibitors” (Alantos Pharmaceutical Holdings, Inc., priority 2006, dated 2010)
